The record followed here is article PMC9954146, “Anti-Leukaemic Activity of Rilpivirine Is Mediated by Aurora A Kinase Inhibition” (Cancers, 2023).

Where two headings read alike, the source gives them in different places.

In test [1] the test system is leukaemia cell lines (HL-60, NB4, K-562, and U-937). In words: Resazurin cell viability assay, four cell lines. In kind it is cell-based. The following applies: Homo sapiens; after 24, 48, or 72 h of treatment; read-out: GI50 values, range over all cell lines. As for the experimental part:
(§1) Cell viability was determined by a resazurin-based assay as described previously. Briefly, 5 × 10^3 cells/well were seeded into 96-well plates (Corning Inc., Corning, NY, USA) in 180 µL of RPMI 1640 medium and incubated overnight at 37 °C with 5% CO2. Next day, cells were treated with rilpivirine after serially diluted (1:2 dilution for final concentrations ranging from 0.625 µM to 40 µM) or DMSO (0.1%) for specified time periods (24, 48, or 72 h). At the end of the treatment period, 20 µL of resazurin (0.1 mg/mL in PBS) was added per well and incubated for further 4 h. Fluorescence intensities were recorded at 570 nm (excitation)/585 nm (emission) using an EnVision® multilabel plate reader (PerkinElmer, MA, USA). Drug concentrations required for cell viability reduction by 50% (GI50) compared with untreated (DMSO vehicle-treated only) control were determined by a non-linear regression model using GraphPad Prism software version 7.02 (La Jolla, CA, USA).
On the technique in general: Alamar Blue is a resazurin reagent that responds to reducing activity.

In test [2] the test system is K-562 cells. In words: Resazurin cell viability assay. The following applies: Homo sapiens. It is filed as cell-based, human. Here is the method:
as §1

Test [3] has as its system HL-60 cells. In words: Resazurin cell viability assay. It is filed as cell-based. The following applies: Homo sapiens, read-out: GI50. As for the experimental part: Cell viability was determined by a resazurin-based assay as described previously. […] At the end of the treatment period, 20 µL of resazurin (0.1 mg/mL in PBS) was added per well and incubated for further 4 h.

For the next test, the system named is MV4-11 cells. In words: Apoptosis, annexin V/PI double staining. In kind it is cell-based, human. The following applies: 10 or 20 μM, 48 h; FLT3-ITD mutation. As for the experimental part:
(§2) The cellular apoptosis was detected using annexin-V/PI double staining by following a method described previously. Briefly, cells were added in 6-well plates containing 3 mL of medium each well at 8 × 10^4 cells/well and incubated at 37 °C, 5% CO2. After overnight incubation, the test compounds were added to the cells and again incubated for desired time points. Then, the cells were collected in FACS tubes, washed with PBS and incubated with annexin V and PI solution for 15 min in the dark at room temperature. The apoptotic cell death was measured within 1 h using the same instrument and data processing software described for cell cycle analysis.

A further test relates to U-937 cells. The experiment in a line: Apoptosis, annexin V/PI double staining. It is filed as cell-based, human. The following applies: 48 h. Here is the method:
as §2

Test [4] relates to K-562 cells. The experiment in a line: Apoptosis, annexin V/PI double staining. In kind it is cell-based, human. The following applies: 48 h. Here is the method:
as §2

The test system of test [5] is HL-60 cells. The experiment in a line: Apoptosis, annexin V/PI double staining. It is filed as cell-based, human. The following applies: 48 h. As for the experimental part:
as §2

The subject of test [6] is NB4 cells. The experiment in a line: Apoptosis, annexin V/PI double staining. In kind it is cell-based, human. The following applies: 48 h. As for the experimental part:
as §2

The subject of test [7] is HL-60 cells. The experiment in a line: Colony formation assay. In kind it is cell-based, human. The following applies: 2.5, 5, or 10 µM, 10 days. Here is the method: (§3) For colony formation assay, 2 × 10^3 cells/well (in 6-well plates) were treated for 10 days with rilpivirine (2.5, 5, or 10 µM) or DMSO (0.1%) and incubated with 1.5 mL of cytokine-free H4230 medium ([…] Technologies, Inc., Vancouver, BC, Canada). After the incubation period, cells were stained with 300 µL/well of 3-(4,5-dimethylthiazol-2-yl)-2,5-diphenyltetrazolium bromide solution (0.5 mg/mL in PBS) (Sigma-Aldrich, St Louis, MO, USA) and incubated for 1 h. Colonies were then counted on an inverted microscope.

Test [8] relates to NB4 cells. The experiment in a line: Colony formation assay. The following applies: 2.5, 5, or 10 µM, 10 days. It is filed as cell-based, human. Here is the method:
as §3

As to `Cc1cc(/C=C/C#N)cc(C)c1Nc1ccnc(Nc2ccc(C#N)cc2)n1` [rilpivirine, (E)-4-((4-((4-(2-cyanoethenyl)-2,6-dimethylphenyl)amino)pyrimidin-2-yl)amino)benzonitrile], the GI50 (as a rule, the concentration that inhibits growth by half) is 4.12 to 12.4 µM in test [1]; 12.4 ± 2.16 µM with K-562 cells [2] (K562, 24 h); 8.43 ± 0.37 µM with K-562 cells [2] (K562, 48 h); 7.36 ± 0.24 µM with K-562 cells [2] (K562, 72 h); 9.16 ± 1.05 µM with HL-60 cells [3] (HL-60, 24 h); 6.26 ± 0.15 µM in the test with HL-60 cells [3] (HL-60, 48 h). Besides, the GI50 with HL-60 cells [3] (HL-60, 72 h) came to 4.12 ± 0.18 µM. In addition, in the test with MV4-11 cells, the apoptosis induction entry is listed as “induced significant apoptosis”. Further, the “apoptotic cells (early and late apoptosis)” value in the test with U-937 cells (5 µM) is listed as 20.68%; in the test on U-937 cells (10 µM), 29.58%; in the test with U-937 cells (20 µM) it was 39.47%; with K-562 cells [4] (5 µM), 15.06%; with K-562 cells [4] (10 µM) it was 31.88%; in the test with K-562 cells [4] (20 µM) it was 38.21%. Also, the “apoptotic cells (early and late apoptosis)” value with HL-60 cells [5] (5 µM) amounted to 6.94%; in the test with HL-60 cells [5] (10 µM), 48.73%; in the test on HL-60 cells [5] (20 µM), 67.32%; with NB4 cells [6] (5 µM), 31.62%; in the test with NB4 cells [6] (10 µM), 87.04%; in the test with NB4 cells [6] (20 µM) it was 98.9%. Also, the clonogenic growth entry in the test with HL-60 cells [7] and in the test with NB4 cells [8] was “significantly decreased” in each case.
